US20240400577A1, “MODULATORS OF PROTEIN KINASES” (VIBLIOME THERAPEUTICS, LLC, priority 2021, published 2024)

How the values were obtained:
Test in all cases: Kinase panel enzymatic inhibition assay (Nanosyn)
Format in all cases: biochemical
RIPK2 = target: T1, RIPK2 (Homo sapiens, UniProt O43353); conditions: ATP at Km; 30-minute pre-incubation; read-out: kinase inhibition in terms of IC50, RIPK2
T1 construct: purchased Nanosyn
In short: (§1)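 Enzymatic inhibition measured within a panel of at least 300 kinases, using a validated format such as Caliper LabChip mobility shift, ADP detection or time-resolved fluorescence. Compounds tested at 5 μM with ATP at each kinase's Km, after a 30-minute pre-incubation. Values given as percent inhibition or IC50.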

RIPK1 = target: T2, RIPK1 (Homo sapiens, UniProt Q13546); conditions: ATP at Km; 30-minute pre-incubation; read-out: kinase inhibition in terms of IC50, RIPK1
T2 construct: purchased Nanosyn
T2 sequence (Q13546 1-671): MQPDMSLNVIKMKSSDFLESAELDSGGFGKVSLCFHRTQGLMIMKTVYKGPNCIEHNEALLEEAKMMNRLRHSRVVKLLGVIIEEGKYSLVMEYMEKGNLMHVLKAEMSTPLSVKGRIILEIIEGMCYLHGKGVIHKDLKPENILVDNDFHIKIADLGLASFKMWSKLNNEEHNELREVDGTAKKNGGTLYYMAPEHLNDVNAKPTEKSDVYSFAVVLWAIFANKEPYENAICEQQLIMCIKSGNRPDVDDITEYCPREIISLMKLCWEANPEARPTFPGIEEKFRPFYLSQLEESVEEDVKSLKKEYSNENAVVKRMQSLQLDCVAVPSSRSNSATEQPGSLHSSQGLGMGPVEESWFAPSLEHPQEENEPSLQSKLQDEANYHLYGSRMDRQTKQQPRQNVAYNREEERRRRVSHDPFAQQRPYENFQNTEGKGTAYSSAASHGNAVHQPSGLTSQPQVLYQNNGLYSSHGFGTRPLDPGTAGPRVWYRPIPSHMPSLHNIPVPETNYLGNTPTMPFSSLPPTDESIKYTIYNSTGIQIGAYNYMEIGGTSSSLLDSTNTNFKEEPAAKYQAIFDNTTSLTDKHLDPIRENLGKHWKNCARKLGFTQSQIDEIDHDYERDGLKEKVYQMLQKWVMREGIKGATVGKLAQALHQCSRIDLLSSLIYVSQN
In short: as §1

RIPK3 = target: T3, RIPK3 (Homo sapiens, UniProt Q9Y572); conditions: ATP at Km; 30-minute pre-incubation; read-out: kinase inhibition in terms of IC50, RIPK3
T3 construct: purchased Nanosyn
In short: as §1

T1 sequence (O43353 whole entry): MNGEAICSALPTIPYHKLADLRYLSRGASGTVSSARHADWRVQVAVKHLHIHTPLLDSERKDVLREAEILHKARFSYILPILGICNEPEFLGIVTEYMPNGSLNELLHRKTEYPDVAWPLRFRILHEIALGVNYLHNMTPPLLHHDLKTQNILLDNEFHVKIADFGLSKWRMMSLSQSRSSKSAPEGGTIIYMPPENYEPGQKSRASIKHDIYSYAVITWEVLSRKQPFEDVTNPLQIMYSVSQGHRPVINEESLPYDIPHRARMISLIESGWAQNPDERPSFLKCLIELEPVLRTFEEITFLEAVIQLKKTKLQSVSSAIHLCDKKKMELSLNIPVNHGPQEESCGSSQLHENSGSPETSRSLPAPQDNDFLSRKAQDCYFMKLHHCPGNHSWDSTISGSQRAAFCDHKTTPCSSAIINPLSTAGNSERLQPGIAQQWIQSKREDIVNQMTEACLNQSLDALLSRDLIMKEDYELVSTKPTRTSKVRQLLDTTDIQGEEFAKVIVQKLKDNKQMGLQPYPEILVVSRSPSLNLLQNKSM
T3 sequence (Q9Y572 whole entry): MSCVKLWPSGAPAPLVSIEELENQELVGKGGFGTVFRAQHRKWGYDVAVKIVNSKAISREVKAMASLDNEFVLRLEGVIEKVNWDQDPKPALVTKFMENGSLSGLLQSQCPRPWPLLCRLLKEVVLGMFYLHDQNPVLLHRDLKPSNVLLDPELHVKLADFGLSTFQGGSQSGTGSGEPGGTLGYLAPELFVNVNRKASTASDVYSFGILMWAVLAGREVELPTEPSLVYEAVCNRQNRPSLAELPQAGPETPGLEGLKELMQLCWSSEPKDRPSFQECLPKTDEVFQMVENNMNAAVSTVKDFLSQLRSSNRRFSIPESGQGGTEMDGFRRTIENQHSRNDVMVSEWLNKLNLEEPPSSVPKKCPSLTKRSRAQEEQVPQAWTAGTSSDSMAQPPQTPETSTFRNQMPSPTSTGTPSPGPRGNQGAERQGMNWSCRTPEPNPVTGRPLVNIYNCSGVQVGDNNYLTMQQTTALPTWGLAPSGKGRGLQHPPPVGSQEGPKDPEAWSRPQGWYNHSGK

- IC50 (RIPK2): 0.5 to 1 µM
- IC50 (RIPK1): ≥ 10 µM
- IC50 (RIPK3): 1 to 10 µM
SMILES: COc1cc2nccc(Oc3ccc(NC(=O)c4cc(S(C)(=O)=O)n(-c5ccc(F)cc5)n4)c(F)c3)c2cc1OC [Ex71, N-(4-((6,7-dimethoxyquinolin-4-yl)oxy)-2-fluorophenyl)-1-(4-fluorophenyl)-5-(methylsulfonyl)-1H-pyrazole-3-carboxamide]
